US12338262B2 (Forward Therapeutics, Inc., priority 2022, dated 2025)

Molecular target: TNF-α (Homo sapiens, UniProt P01375)
Experiment: TNF-α Induced HEK Blue Cellular Assay
Type: cell-based
Settings: HEK Blue TNFα reporter cells, TNF-α 100 pg/ml, 24 hrs at 37° C., secreted alkaline phosphatase (QUANTI-Blue, 620 nm)
Method in brief: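 HEK Blue TNFα reporter cells (10,000/well, DMEM + 10% FBS) treated with compound ([…] to 0.5 nM final) and stimulated with 100 pg/ml TNF-α for 24 h at 37 °C. Secreted alkaline phosphatase read with QUANTI-Blue at 620 nm; IC50 by 4-parameter logistic fit after background correction to stimulated/unstimulated DMSO controls.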

Chain of TNF-α (P01375 77-233 limits assumed): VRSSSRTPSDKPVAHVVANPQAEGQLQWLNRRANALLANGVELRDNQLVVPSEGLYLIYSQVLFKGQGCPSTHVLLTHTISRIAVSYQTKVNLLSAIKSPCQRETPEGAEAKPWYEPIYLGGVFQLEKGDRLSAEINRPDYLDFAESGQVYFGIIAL

IC50, ≤ 1000 nM:
Cc1nc2cc(F)c(-c3ccc(P(C)(C)=O)nc3)nc2c(N[C@@H](c2ccccc2)C2CC2)c1Cl [Example 137, 3-chloro-N—[(R)-cyclopropyl(phenyl)methyl]-6-[6-(dimethylphosphoryl)pyridin-3-yl]-7-fluoro-2-methyl-1,5-naphthyridin-4-amine]
Cc1nc2cc(F)c(-c3ccc(P(C)(C)=O)nc3)c(F)c2c(NC(C)c2ncccc2F)c1Cl (centres unmarked) [Example 97, 3-chloro-6-[6-(dimethylphosphoryl)pyridin-3-yl]-5,7-difluoro-N-[1-(3-fluoropyridin-2-yl)ethyl]-2-methylquinolin-4-amine]
CC[C@@H](Nc1c(Cl)c(C)nc2cc(F)c(-c3ccc(P(C)(C)=O)c(F)c3)nc12)c1ncccc1F [Example 4, 3-chloro-6-[4-(dimethylphosphoryl)-3-fluorophenyl]-7-fluoro-N-[(1R)-1-(3-fluoropyridin-2-yl)propyl]-2-methyl-1,5-naphthyridin-4-amine]
Cc1nc2cc(F)c(-c3ccc(P(C)(C)=O)nc3)nc2c(NC(C)c2ncccc2F)c1Cl (centres unmarked) [Example 94, 3-chloro-6-[6-(dimethylphosphoryl)pyridin-3-yl]-7-fluoro-N-[1-(3-fluoropyridin-2-yl)ethyl]-2-methyl-1,5-naphthyridin-4-amine]
CC[C@@H](Nc1c(Cl)c(C)nc2cc(F)c(-c3cnc(P(C)(C)=O)nc3)nc12)c1cccc(F)c1F [Example 113, (R)-(5-(7-chloro-8-((1-(2,3-difluorophenyl)propyl)amino)-3-fluoro-6-methyl-1,5-naphthyridin-2-yl)pyrimidin-2-yl)dimethylphosphine oxide]
Cc1nc2cc(F)c(-c3cnc(P(C)(C)=O)nc3)nc2c(N[C@@H](c2ccccc2F)C(F)(F)F)c1Cl [Example 71, 3-chloro-6-[2-(dimethylphosphoryl)pyrimidin-5-yl]-7-fluoro-2-methyl-N-[(1S)-2,2,2-trifluoro-1-(2-fluorophenyl)ethyl]-1,5-naphthyridin-4-amine]
C[C@@H](Nc1c(Cl)cnc2cc(F)c(-c3cnc(P(C)(C)=O)nc3)cc12)c1cc(C#N)ccc1F [Example 12, 3-[(1R)-1-({3-chloro-6-[2-(dimethylphosphoryl)pyrimidin-5-yl]-7-fluoroquinolin-4-yl}amino)ethyl]-4-fluorobenzonitrile]
CC[C@@H](Nc1c(Cl)c(C)nc2cc(F)c(-c3ccc(P(C)(C)=O)c(F)c3)nc12)c1ccccc1F [Example 24, 3-chloro-6-[4-(dimethylphosphoryl)-3-fluorophenyl]-7-fluoro-N-[(1R)-1-(2-fluorophenyl)propyl]-2-methyl-1,5-naphthyridin-4-amine]

IC50, 1000 to 10000 nM:
Cc1nc2cc(F)c(-c3ccc(P(C)(C)=O)nc3)nc2c(N[C@H](C)c2ccccc2Cl)c1Cl [Example 87, 3-chloro-N-[(1R)-1-(2-chlorophenyl)ethyl]-6-[6-(dimethylphosphoryl)pyridin-3-yl]-7-fluoro-2-methyl-1,5-naphthyridin-4-amine]

IC50, 10000 to 30000 nM:
Cc1nc2cc(F)c(-c3ccc(P(C)(C)=O)nc3)nc2c(N[C@H](CO)c2ccccc2F)c1Cl [Example 59, (2S)-2-({3-chloro-6-[6-(dimethylphosphoryl)pyridin-3-yl]-7-fluoro-2-methyl-1,5-naphthyridin-4-yl}amino)-2-(2-fluorophenyl)ethanol]
Cc1nc2cc(F)c(-c3ccc(P(C)(C)=O)nc3)cc2c(N[C@H](C)c2cncnc2)c1Cl (single isomer, unassigned) [Example 100]
Cc1nc2cc(F)c(-c3ccc(P(C)(C)=O)nc3)nc2c(N[C@@H](CO)c2cc(C#N)ccc2F)c1Cl (single isomer, unassigned) [Example 64]
Cc1nc2cc(F)c(-c3ccc(P(C)(C)=O)nc3)nc2c(N[C@H](CO)c2cc(C#N)ccc2F)c1Cl (single isomer, unassigned) [Example 63]
Cc1nc2cc(F)c(-c3ccc(P(C)(C)=O)nc3)nc2c(N[C@H](C)c2cccc(F)c2F)c1C#N [Example 144, 4-{[(1R)-1-(2,3-difluorophenyl)ethyl]amino}-6-[6-(dimethylphosphoryl)pyridin-3-yl]-7-fluoro-2-methyl-1,5-naphthyridine-3-carbonitrile]

IC50, ≤ 100 nM:
Cc1nc2cc(F)c(-c3cnc(P(C)(C)=O)nc3)nc2c(N[C@H](C)c2cc(C#N)ccc2F)c1Cl [Example 1, 3-[(1R)-1-({3-chloro-6-[2-(dimethylphosphoryl)pyrimidin-5-yl]-7-fluoro-2-methyl-1,5-naphthyridin-4-yl}amino)ethyl]-4-fluorobenzonitrile]
Cc1nc2cc(F)c(-c3ccc(P(C)(C)=O)nc3)nc2c(N[C@H](C)c2ccccc2F)c1Cl [Example 18, 3-chloro-6-[6-(dimethylphosphoryl)pyridin-3-yl]-7-fluoro-N-[(1R)-1-(2-fluorophenyl)ethyl]-2-methyl-1,5-naphthyridin-4-amine]
Cc1nc2cc(F)c(-c3ccc(P(C)(C)=O)nc3)nc2c(N[C@@H](C)c2ccc(F)c(F)c2F)c1Cl (single isomer, unassigned) [Example 110]
Cc1nc2cc(F)c(-c3ccc(OCP(C)(C)=O)nc3)nc2c(N[C@H](C)c2ccccc2F)c1Cl [Example 56, 3-chloro-6-{6-[(dimethylphosphoryl)methoxy]pyridin-3-yl}-7-fluoro-N-[(1R)-1-(2-fluorophenyl)ethyl]-2-methyl-1,5-naphthyridin-4-amine]
Cc1nc2cc(F)c(-c3ccc(P(C)(C)=O)nc3)nc2c(N[C@@H](c2cc(C#N)ccc2F)C(F)F)c1Cl [Example 34, (S)-3-(1-((3-chloro-6-(6-(dimethylphosphoryl)pyridin-3-yl)-7-fluoro-2-methyl-1,5-naphthyridin-4-yl)amino)-2,2-difluoroethyl)-4-fluorobenzonitrile]
Cc1nc2cc(F)c(-c3ccc(P(C)(C)=O)nc3)nc2c(N[C@H](C)c2cc(C#N)cc(F)c2F)c1Cl [Example 106, 3-[(1R)-1-({3-chloro-6-[6-(dimethylphosphoryl)pyridin-3-yl]-7-fluoro-2-methyl-1,5-naphthyridin-4-yl}amino)ethyl]-4,5-difluorobenzonitrile]
Cc1nc2cc(F)c(-c3ccc(P(C)(C)=O)nc3)nc2c(N[C@H](C)c2cccc(F)c2F)c1Cl [Example 50, 3-chloro-N-[(1R)-1-(2,3-difluorophenyl)ethyl]-6-[6-(dimethylphosphoryl)pyridin-3-yl]-7-fluoro-2-methyl-1,5-naphthyridin-4-amine]
Cc1nc2cc(F)c(-c3ccc(P(C)(C)=O)nc3)nc2c(N[C@H](C)c2cc(C#N)ccc2F)c1Cl [Example 2, 3-[(1R)-1-({3-chloro-6-[6-(dimethylphosphoryl)pyridin-3-yl]-7-fluoro-2-methyl-1,5-naphthyridin-4-yl}amino)ethyl]-4-fluorobenzonitrile]
CC[C@H](Nc1c(Cl)c(C)nc2cc(F)c(-c3ccc(P(C)(C)=O)nc3)nc12)c1cc(C#N)ccc1F [Example 44, 3-[(1S)-1-({3-chloro-6-[6-(dimethylphosphoryl)pyridin-3-yl]-7-fluoro-2-methyl-1,5-naphthyridin-4-yl}amino)propyl]-4-fluorobenzonitrile]
